Data taken from publication PMC11597446, “Using the Cocrystal Approach as a Promising Drug Delivery System to Enhance the Dissolution and Bioavailability of Formononetin Using an Imidazole Coformer” (Pharmaceuticals, 2024).
“Also recorded” adds a separate entry of the source. Like-named read-outs stand apart in the source and are kept apart here.

Tests used:
[1] = Rat oral pharmacokinetics; type: in vivo, Male Sprague-Dawley rats; details: rats, oral 20 mg FMN/kg
Protocol: The study was carried out in rats at a 20 mg FMN/kg dose. The plasma concentration profiles and the PK parameters are presented in Figure 9 and Table 4, respectively.
The experiments were carried out in accordance with the Guidelines for Animal Experimentation of Nonclinical Center, Chaon Co. Ltd. (Yongin, Republic of Korea) and approved by the Animal Ethics Committee of the institution (CE23665) on 13 February 2024. Male Sprague−Dawley rats (230−300 g, 8 weeks) were obtained from Dae Han Bio Link Co., Ltd. (Eumseong-gun, Republic of Korea). All rats had free access to food and water in a controlled environment for one week. […] After stirring for 5 min at 37 °C, an appropriate volume (about 200 μL) of suspension was delivered via oral gavage at a dosage of 20 mg/kg body weight. Approximately 300 μL blood samples were obtained from tail veins and placed into tubes pretreated with sodium citrate before and after 0.25, 0.5, 1, 2, 4, 8, and 24 h of dosing. Blood samples were immediately centrifuged at 5000 rpm for 10 min. All the plasma samples were stored at −80 °C until analysis. FMN from plasma samples were prepared for analysis by liquid–liquid extraction using methyl tert-butyl ether according to the following steps: 60 µL internal standard (IS) solution (10 ng/mL in 50% methanol) was added to 70 µL plasma sample and […] was placed in a 15 mL tube. The sample solution was vortexed for 10 min followed by centrifugation for 5 min at 4000 rpm. The upper organic layer was transferred to a clean test tube and evaporated on a heating block at 50 °C under nitrogen. The residue was dissolved in the 50% acetonitrile (900 µL, in 0.1% formic acid) and mixed on a vortex mixer for 30 s. Resulting sample solution was transferred to auto-sampler vials, and 5 µL aliquot was injected into the LC/MS/MS system for analysis of FMN by a validated method as described below.
The pharmacokinetic data were analyzed by Winnlene (China Pharmaceutical University, Nanjing, China), using the noncompartmental method to calculate the peak plasma concentration (Cmax), the time to reach Cmax (Tmax), and the area under the plasma concentration−time curve (AUC).
FMN quantitative analysis was carried out using Agilent 1200 system (Agilent, Waldbronn, Germany) with triple quadrupole mass spectrometry API5000 (ABSciex, Vaughan, ON, Canada) operated in negative electrospray ionization using MRM mode. A Luna C8(2) column (2.1 mm I.D., 100 mm length, 5 μm; Phenomenex, Torrance, CA, USA) was maintained at 40 °C. Gradient elution was carried out at a flow rate of 0.3 mL/min using mobile phase A (distilled water) and mobile phase B (acetonitrile). The gradient applied was as follows: from 0 to 2.5 min, 50% B; from 2.6 to 7.0 min, 95% B; and from 7.1 to 11.5 min, 50% B. Sample volumes of 5 μL were injected. The fragmentation transitions were m/z 267.1 → 252.0 for FMN and m/z 197.0 → 92.0 for […], respectively. Optimized instrument settings specific for FMN and IS were as follows: curtain gas, 20 psi; ion source gas 1, 50 psi; ion source gas 2, 50 psi; ion spray voltage, −4500 V; turbo heater temperature, 650 °C. The precursor ions of FMN and IS were formed using declustering potentials of −90 and −40 V, respectively, and their precursor ions were fragmented at collision energies of −28 and −42 eV by collision-activated dissociation with nitrogen at a pressure setting of 5 (arbitrary units). Both quadrupoles were maintained at unit resolution. The ratio of the standard to IS peak area was used for calibration by linear regression analysis.

[2] = Physical stability test (PXRD after storage); type: physicochemical
Protocol: Powder samples in closed glass vials were stored at 4 and 40 °C. They were then analyzed by PXRD for crystallization at given time points. PXRD measurement conditions were the same as described above.

[3] = Powder dissolution experiment in bio-relevant media (FaSSGF, FaSSIF); details: 37 °C
Protocol: Bio-relevant media, FaSSGF and FaSSIF, were used for powder dissolution tests to mimic in vivo environments.
Powder samples were sieved through a 300 µm sieve. FaSSGF and FaSSIF were prepared according to the literature, except pepsin was not included in FaSSGF [41]. Samples equivalent to 5 mg of FMN were added to 20 mL glass vials containing 10 mL of FaSSGF or FaSSIF. Sample vials were placed in a shaking incubator (SIF-6000R, Jeio Tech, Daejeon, Republic of Korea) at 37 °C. Aliquots (1 mL) were collected at designated time points and filtered through a 0.45 µm PVDF filter and diluted with the HPLC mobile phase for HPLC analysis. Additional test for cocrystal was carried out in the presence of PVP K30 (2.5 mg/mL) in FaSSGF or FaSSIF.
FMN quantitative analysis was carried out using a Shimadzu system (Japan) equipped with a C8 column (5 μm, 4.6 mm I.D., and 150 mm length, Waters, Milford, MA, USA) at room temperature. The mobile phase was composed of methanol/water (60:40, v/v). Samples were injected in a volume of 10 μL with a total flow rate set at 1.0 mL/min. Detection was carried out at a UV wavelength of 254 nm. The area of the standard was used for calibration by linear regression analysis.

[4] = plasma FMN, suspension in 1% PVP-K30, n = 4

Row | AUCinf [1, 4] | Cmax [1, 4] | T1/2 [1, 4] | Tmax [1, 4] | AUCt ([1]; plasma FMN, suspension in 1% PVP-K30, n = 4, mean ± SD) | increase in AUC compared to crystalline FMN [1] | increase in Cmax compared to crystalline FMN [1] | physical stability (PXRD) after storage ([2]; six months at 4 and 40 °C, closed glass vials) | AUC(0-inf) ([1]; male, Sprague-Dawley, rat, 20 mg/kg, plasma FMN, crystalline FMN suspension in 1% PVP-K30, n = 4) | AUC(0-t) ([1]; male, Sprague-Dawley, rat, 20 mg/kg, plasma FMN, crystalline FMN suspension in 1% PVP-K30, n = 4, mean ± SD) | Cmax ([1]; male, Sprague-Dawley, rat, 20 mg/kg, plasma FMN, crystalline FMN suspension in 1% PVP-K30, n = 4, read-out: Cmax) | half-life ([1]; male, Sprague-Dawley, rat, 20 mg/kg, plasma FMN, suspension in 1% PVP-K30, n = 4) | Tmax ([1]; male, Sprague-Dawley, rat, 20 mg/kg, plasma FMN, suspension in 1% PVP-K30, n = 4, read-out: Tmax) | Compound | physical stability (PXRD) after storage ([2]; six months at 40 °C) | dissolution rate and concentration at 6 h compared with crystalline FMN [3]
1 | 44.52 ± 19.11 ng·h/mL | 8.93 ± 6.66 ng/mL | 5.60 ± 2.19 h | 0.44 ± 0.38 h | 37.38 ± 20.97 ng·h/mL | 3.58 fold | 4.93 fold | remained the same for six months | – | – | – | – | – | formononetin-imidazole [FMN-IMD cocrystal] | no changes in the PXRD; also recorded: stable for six months | faster dissolution rate and higher concentration at the 6-h time point
2 | – | – | – | – | – | – | – | – | 16.4 ± 1.51 ng·h/mL | 10.4 ± 3.19 ng·h/mL | 1.81 ± 0.73 ng/mL | 7.1 ± 3.35 h | 5 ± 2 h | COc1ccc(-c2coc3cc(O)ccc3c2=O)cc1 [FMN, Formononetin] | – | –
